Data taken from ChEMBL document CHEMBL2021864, “Investigating the activity of quinine analogues versus chloroquine resistant Plasmodium falciparum” (Bioorg Med Chem, 2012).

Experiments:
Plasmodium falciparum [1] = assay: microbe, parasite or virus in culture; format: functional, organism-based; conditions: Dd2, 72 h
Description: Antimalarial activity against chloroquine resistant Plasmodium falciparum Dd2 after 72 hrs by SYBP Green I dye staining

Plasmodium falciparum [2] = assay: microbe, parasite or virus in culture; format: functional, organism-based; conditions: HB3, 72 h
Description: Antimalarial activity against chloroquine sensitive Plasmodium falciparum HB3 after 72 hrs by SYBP Green I dye staining

[3] = Inhibition of beta-hematin formation after 16 hrs at pH 5.2 by microplate reader; format: functional
[4] = Inhibition of beta-hematin formation after 16 hrs at pH 5.6 by microplate reader; format: functional
Plasmodium falciparum [5] = assay: Ratio of compound IC50 to quinidine IC50 for […] Plasmodium falciparum Dd2; format: functional
Plasmodium falciparum [6] = assay: Ratio of compound IC50 to quinidine IC50 for chloroquine sensitive Plasmodium falciparum HB3; format: functional
Plasmodium falciparum [7] = assay: Ratio of compound IC50 to cinchonine IC50 for chloroquine sensitive Plasmodium falciparum HB3; format: functional

## COc1ccc2nccc([C@@H](O)[C@H]3C[C@H]4CCN3C[C@@H]4/C=C/c3ccccc3)c2c1
Plasmodium falciparum [1]
  IC50: > 0.5 µM
Plasmodium falciparum [2]
  IC50: > 0.5 µM

## COc1ccc2nccc([C@@H](O)[C@H]3C[C@H]4CCN3C[C@@H]4/C=C/c3ccc(C)cc3)c2c1
Plasmodium falciparum [1]
  IC50: > 0.5 µM
Plasmodium falciparum [2]
  IC50: > 0.5 µM

## COc1ccc2nccc([C@@H](O)[C@H]3C[C@H]4CCN3C[C@@H]4/C=C/c3ccccc3C)c2c1
Plasmodium falciparum [1]
  IC50: > 0.5 µM
Plasmodium falciparum [2]
  IC50: > 0.5 µM

## COc1ccc2nccc([C@@H](O)[C@H]3C[C@H]4CCN3C[C@@H]4/C=C/c3ccc4ccccc4c3)c2c1
Plasmodium falciparum [1]
  IC50: > 1.5 µM
Plasmodium falciparum [2]
  IC50: > 0.5 µM

## COc1ccc2nccc([C@@H](O)[C@H]3C[C@H]4CCN3C[C@@H]4/C=C/c3cccc4ccccc34)c2c1
Plasmodium falciparum [1]
  IC50: > 0.5 µM
Plasmodium falciparum [2]
  IC50: > 0.5 µM

## COc1ccc2nccc([C@@H](O)[C@H]3C[C@H]4CCN3C[C@@H]4/C=C/c3ccc(-c4ccccc4)cc3)c2c1
Plasmodium falciparum [1]
  IC50: 0.184 µM
Plasmodium falciparum [2]
  IC50: 0.128 µM

## CCOC(=O)c1ccc(/C=C/[C@H]2CN3CC[C@@H]2C[C@@H]3[C@H](O)c2ccnc3ccc(OC)cc23)cc1
[3]
  IC50: 54 µM
[4]
  IC50: 40 µM
Plasmodium falciparum [1]
  IC50: 0.318 µM
Plasmodium falciparum [2]
  IC50: 0.428 µM

## COc1ccc2nccc([C@@H](O)[C@H]3C[C@H]4CCN3C[C@@H]4/C=C/c3ccc(F)cc3)c2c1
[3]
  IC50: 44 µM
[4]
  IC50: 23 µM
Plasmodium falciparum [1]
  IC50: > 0.5 µM
Plasmodium falciparum [2]
  IC50: > 0.5 µM

## COc1ccc2nccc([C@@H](O)[C@H]3C[C@H]4CCN3C[C@@H]4/C=C/c3cccc(F)c3)c2c1
Plasmodium falciparum [1]
  IC50: 0.733 µM
Plasmodium falciparum [2]
  IC50: 0.145 µM

## COc1ccc2nccc([C@@H](O)[C@H]3C[C@H]4CCN3C[C@@H]4/C=C/c3ccc(Cl)cc3)c2c1
Plasmodium falciparum [1]
  IC50: > 0.5 µM
Plasmodium falciparum [2]
  IC50: > 0.5 µM

## COc1ccc2nccc([C@@H](O)[C@H]3C[C@H]4CCN3C[C@@H]4/C=C/c3ccc(C(F)(F)F)cc3)c2c1
[3]
  IC50: 100 µM
[4]
  IC50: 46 µM
Plasmodium falciparum [1]
  IC50: 0.485 µM
Plasmodium falciparum [2]
  IC50: 0.427 µM

## COc1ccc2nccc([C@@H](O)[C@H]3C[C@H]4CCN3C[C@@H]4/C=C/c3cccc(C(F)(F)F)c3)c2c1
[3]
  IC50: 52 µM
Plasmodium falciparum [1]
  IC50: > 0.5 µM
Plasmodium falciparum [2]
  IC50: > 0.5 µM

## COc1ccc(/C=C/[C@H]2CN3CC[C@@H]2C[C@@H]3[C@H](O)c2ccnc3ccc(OC)cc23)cc1
Plasmodium falciparum [1]
  IC50: > 0.5 µM
Plasmodium falciparum [2]
  IC50: > 0.5 µM

## COc1cccc(/C=C/[C@H]2CN3CC[C@@H]2C[C@@H]3[C@H](O)c2ccnc3ccc(OC)cc23)c1
Plasmodium falciparum [1]
  IC50: > 0.5 µM
Plasmodium falciparum [2]
  IC50: > 0.5 µM

## COc1ccc2nccc([C@@H](O)[C@H]3C[C@H]4CCN3C[C@@H]4/C=C/c3ccc4c(c3)OCO4)c2c1
Plasmodium falciparum [1]
  IC50: > 0.5 µM
Plasmodium falciparum [2]
  IC50: > 0.5 µM

## O[C@H](c1ccnc2ccccc12)[C@@H]1C[C@@H]2CCN1C[C@@H]2/C=C/c1ccc(-c2ccccc2)cc1
[4]
  IC50: 116 µM
Plasmodium falciparum [1]
  IC50: 0.176 µM
Plasmodium falciparum [2]
  IC50: 0.127 µM

## CCOC(=O)c1ccc(/C=C/[C@H]2CN3CC[C@H]2C[C@H]3[C@H](O)c2ccnc3ccccc23)cc1
Plasmodium falciparum [1]
  IC50: 0.198 µM
Plasmodium falciparum [2]
  IC50: 0.59 µM

## O[C@H](c1ccnc2ccccc12)[C@@H]1C[C@@H]2CCN1C[C@@H]2/C=C/c1ccc(C(F)(F)F)cc1
Plasmodium falciparum [1]
  IC50: 0.223 µM
Plasmodium falciparum [2]
  IC50: 0.297 µM

## O[C@H](c1ccnc2ccccc12)[C@@H]1C[C@@H]2CCN1C[C@@H]2/C=C/c1cccc(C(F)(F)F)c1
[3]
  IC50: 75 µM
[4]
  IC50: 70 µM
Plasmodium falciparum [1]
  IC50: 0.928 µM
Plasmodium falciparum [2]
  IC50: 0.394 µM

## COc1ccc2nccc([C@H](O)[C@H]3C[C@@H]4CCN3C[C@@H]4/C=C/c3ccc(-c4ccccc4)cc3)c2c1
Plasmodium falciparum [1]
  IC50: 0.202 µM
Plasmodium falciparum [2]
  IC50: 0.123 µM
Plasmodium falciparum [5]
  Ratio IC50: 2
Plasmodium falciparum [6]
  Ratio IC50: 6

## CCOC(=O)c1ccc(/C=C/[C@H]2CN3CC[C@H]2C[C@@H]3[C@@H](O)c2ccnc3ccc(OC)cc23)cc1
[3]
  IC50: 88 µM
[4]
  IC50: 40 µM
Plasmodium falciparum [1]
  IC50: 0.203 µM
Plasmodium falciparum [2]
  IC50: 0.12 µM
Plasmodium falciparum [5]
  Ratio IC50: 2
Plasmodium falciparum [6]
  Ratio IC50: 6

## COc1ccc2nccc([C@H](O)[C@H]3C[C@@H]4CCN3C[C@@H]4/C=C/c3ccc(C(F)(F)F)cc3)c2c1
Plasmodium falciparum [1]
  IC50: 2.35 µM
Plasmodium falciparum [2]
  IC50: 0.165 µM

## COc1ccc2nccc([C@H](O)[C@H]3C[C@@H]4CCN3C[C@@H]4/C=C/c3cccc(C(F)(F)F)c3)c2c1
Plasmodium falciparum [1]
  IC50: 0.182 µM
Plasmodium falciparum [2]
  IC50: 0.098 µM
Plasmodium falciparum [5]
  Ratio IC50: 2
Plasmodium falciparum [6]
  Ratio IC50: 6

## O[C@@H](c1ccnc2ccccc12)[C@H]1C[C@@H]2CCN1C[C@@H]2/C=C/c1ccc(-c2ccccc2)cc1
Plasmodium falciparum [1]
  IC50: 0.243 µM
Plasmodium falciparum [7]
  Ratio IC50: 6
Plasmodium falciparum [2]
  IC50: 0.09 µM

## CCOC(=O)c1ccc(/C=C/[C@H]2CN3CC[C@H]2C[C@@H]3[C@@H](O)c2ccnc3ccccc23)cc1
[3]
  IC50: 66 µM
[4]
  IC50: 50 µM
Plasmodium falciparum [1]
  IC50: 0.263 µM
Plasmodium falciparum [7]
  Ratio IC50: 6
Plasmodium falciparum [2]
  IC50: 0.144 µM

## O[C@@H](c1ccnc2ccccc12)[C@H]1C[C@@H]2CCN1C[C@@H]2/C=C/c1ccc(C(F)(F)F)cc1
Plasmodium falciparum [1]
  IC50: 0.983 µM
Plasmodium falciparum [7]
  Ratio IC50: 6
Plasmodium falciparum [2]
  IC50: 0.066 µM

## O[C@@H](c1ccnc2ccccc12)[C@H]1C[C@@H]2CCN1C[C@@H]2/C=C/c1cccc(C(F)(F)F)c1
[3]
  IC50: 63 µM
[4]
  IC50: 39 µM
Plasmodium falciparum [1]
  IC50: 0.146 µM
Plasmodium falciparum [7]
  Ratio IC50: 6
Plasmodium falciparum [2]
  IC50: 0.154 µM

## CCN(CC)CCCC(C)Nc1ccnc2cc(Cl)ccc12 (stereo not drawn) [CHLOROQUINE]
[3]
  IC50: 49 µM
[4]
  IC50: 33 µM

## C=C[C@H]1CN2CC[C@H]1C[C@H]2[C@H](O)c1ccnc2ccccc12 [CINCHONIDINE]
[3]
  IC50: 321 µM
[4]
  IC50: 142 µM
Plasmodium falciparum [1]
  IC50: 0.207 µM
Plasmodium falciparum [2]
  IC50: 0.07 µM

## C=C[C@H]1CN2CC[C@H]1C[C@@H]2[C@@H](O)c1ccnc2ccccc12 [CINCHONINE]
[3]
  IC50: 370 µM
[4]
  IC50: 170 µM
Plasmodium falciparum [1]
  IC50: 0.082 µM
Plasmodium falciparum [2]
  IC50: 0.022 µM

## C=C[C@H]1CN2CC[C@H]1C[C@@H]2[C@@H](O)c1ccnc2ccc(OC)cc12 [QUINIDINE]
[3]
  IC50: 130 µM
[4]
  IC50: 23 µM
Plasmodium falciparum [1]
  IC50: 0.09 µM
Plasmodium falciparum [2]
  IC50: 0.018 µM

## C=C[C@H]1CN2CC[C@H]1C[C@H]2[C@H](O)c1ccnc2ccc(OC)cc12 [QUININE]
[3]
  IC50: 291 µM
[4]
  IC50: 34 µM
Plasmodium falciparum [1]
  IC50: 0.32 µM
Plasmodium falciparum [2]
  IC50: 0.081 µM
